Assay results: patent publication US20110015164A1, “METHOD OF TREATING MEN WITH METABOLIC AND ANTH[…]” (priority 2004, published 2011)

Tested on: men with abdominal obesity, low to low-normal serum total testosterone levels and the metabolic syndrome
Experiment: Placebo-controlled treatment study in abdominally obese men with low to low-normal testosterone and the metabolic syndrome
Conditions: for increasing insulin sensitivity, treatment group relative to placebo / lowering triglycerides, treatment group relative to placebo / reducing visceral adipose tissue, treatment group relative to placebo: end of treatment
Description: (§1) Approximately 200 men are recruited with abdominal obesity (waist circumference >102 cm), low to low-normal serum total testosterone levels (<450 ng/dL), and the metabolic syndrome per NCEP criteria. NCEP criteria for diagnosis of the metabolic syndrome in men includes 3 of the following 5 components: Fasting glucose≧110 mg/dL, TG≧150 mg/dL, low HDL-C (<40 mg/dL), high waist circumference (>102 cm), BP≧130/≧85 mmHg. Since the study design calls for inclusion of abdominally obese men with waist circumference >102 cm, patients have at least 2 of the other 4 criteria to satisfy the NCEP criteria for the metabolic syndrome. Patients are randomized to placebo or treatment. Fasting blood samples are taken.
Periodic measurements of insulin/glycemic response to oral glucose tolerance test (OGTT) and insulin sensitivity index, fasting plasma glucose (FPG), fasting lipid profile (includes triglycerides, total cholesterol, low-density lipoprotein cholesterol, non-high-density lipoprotein cholesterol, high-density lipoprotein cholesterol, and free fatty acids), visceral fat mass, and blood pressure are taken.
as §1, with “taken. After a placebo run in, the treatment group receives daily administration of 0.5 mg N-(2,5-bis-trifluoromethyl-phenyl)-3-oxo-4-aza-4-methyl-5α-androst-1-ene-17β-carboxamide (dutasteride).” for “taken.”
as §1, with “glucose ≧110” for “glucose≧110”, “taken. After a placebo run in, the treatment group receives daily administration of N-(2-trifluoromethyl-phenyl)-3-oxo-4-aza-4-methyl-5α-androst-1-ene-17β-carboxamide.” for “taken.”
as §1, with “(≦450” for “(<450”, “glucose ≧110” for “glucose≧110”

[1] = Example 6: daily administration (dose not given)

Row | Structure (SMILES) | tolerability of the treatment [1] | increasing insulin sensitivity, treatment group relative to placebo [1] | lowering triglycerides, treatment group relative to placebo [1] | reducing visceral adipose tissue, treatment group relative to placebo [1] | tolerability of the treatment (Example 7: 25 mg daily) | increasing insulin sensitivity, treatment group relative to placebo (Example 7: 25 mg daily) | lowering triglycerides, treatment group relative to placebo (Example 7: 25 mg daily) | reducing visceral adipose tissue, treatment group relative to placebo (Example 7: 25 mg daily)
1 | CN1C(=O)C=C[C@]2(C)[C@H]3CC[C@]4(C)[C@@H](C(=O)Nc5ccccc5C(F)(F)F)CC[C@H]4[C@@H]3CC[C@@H]12 [N-(2-trifluoromethyl-phenyl)-3-oxo-4-aza-4-methyl-5α-androst-1-ene-17β-carboxamide] | well tolerated | significant improvement | significant improvement | significant improvement | – | – | – | –
2 | Cc1ccc(O[C@H]2C[C@H]3[C@@H]4[C@@H](C)C[C@H]5NC(=O)C=C[C@]5(C)[C@H]4CC[C@]3(C)C2)cc1 [3-oxo-4-aza-7β-methyl-16β-(4-methylphenoxy)-5α-androst-1-ene] | – | – | – | – | well tolerated | significant improvement | significant improvement | significant improvement
